Results as given in patent US20250304560A1, “MODULATORS OF NLRP3 INFLAMMASOME AND RELATED PRODUCTS AND METHODS” (Neumora Therapeutics, Inc., priority 2022, published 2025).
pIC50: −log10 of the molar value. Like-named read-outs stand apart in the source and are kept apart here.

Key:
IL-6 = IL-6 AlphaLISA in LPS-primed THP1 macrophages; conditions: for pIC50 / IC50: Homo sapiens; for pIC50: THP-1, read-out: IL-6 Activity, LPS-primed THP1 macrophages, Table 11 comparison
hERG channels = target: T1, hERG channels (Homo sapiens, UniProt Q12809); assay: hERG assay, whole-cell patch-clamp in CHO-hERG cells; assay type: cell-based; conditions: for pIC50: whole-cell patch-clamp, CHO-hERG cells
T1 construct: host or cells: CHO-hERG cells
T1 sequence (Q12809 whole entry): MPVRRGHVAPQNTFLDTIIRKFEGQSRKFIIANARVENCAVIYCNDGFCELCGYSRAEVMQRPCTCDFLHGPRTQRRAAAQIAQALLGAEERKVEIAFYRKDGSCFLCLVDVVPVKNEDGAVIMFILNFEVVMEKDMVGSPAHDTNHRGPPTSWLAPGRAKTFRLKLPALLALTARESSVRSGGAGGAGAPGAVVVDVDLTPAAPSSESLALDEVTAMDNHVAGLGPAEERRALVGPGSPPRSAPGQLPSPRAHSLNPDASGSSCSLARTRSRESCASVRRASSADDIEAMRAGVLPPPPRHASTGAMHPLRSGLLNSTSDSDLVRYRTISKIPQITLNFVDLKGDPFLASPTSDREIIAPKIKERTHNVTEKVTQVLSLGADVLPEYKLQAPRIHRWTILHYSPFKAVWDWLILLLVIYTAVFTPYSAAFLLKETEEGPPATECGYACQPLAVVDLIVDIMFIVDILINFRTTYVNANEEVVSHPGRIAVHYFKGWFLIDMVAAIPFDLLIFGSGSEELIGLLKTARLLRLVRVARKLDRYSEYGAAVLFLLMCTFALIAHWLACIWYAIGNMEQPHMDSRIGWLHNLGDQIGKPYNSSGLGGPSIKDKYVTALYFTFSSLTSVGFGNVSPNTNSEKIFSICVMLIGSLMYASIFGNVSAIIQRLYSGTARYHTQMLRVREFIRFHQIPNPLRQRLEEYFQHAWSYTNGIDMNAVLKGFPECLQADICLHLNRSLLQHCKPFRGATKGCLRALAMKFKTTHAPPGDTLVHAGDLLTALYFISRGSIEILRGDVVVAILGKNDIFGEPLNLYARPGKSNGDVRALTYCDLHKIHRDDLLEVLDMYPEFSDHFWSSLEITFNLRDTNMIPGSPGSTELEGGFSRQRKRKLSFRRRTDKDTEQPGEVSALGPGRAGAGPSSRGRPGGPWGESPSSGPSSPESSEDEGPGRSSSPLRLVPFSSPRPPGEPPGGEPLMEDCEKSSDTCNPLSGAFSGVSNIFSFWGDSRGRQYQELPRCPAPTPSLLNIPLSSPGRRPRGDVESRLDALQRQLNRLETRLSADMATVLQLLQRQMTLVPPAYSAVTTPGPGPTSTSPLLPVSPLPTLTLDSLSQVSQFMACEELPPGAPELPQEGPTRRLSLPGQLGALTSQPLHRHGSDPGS
Description: CHO-hERG cells (Sophion Biosciences (Ballerup, Denmark), subcultured and frozen in WuXi AppTec (Suzhou) Co., Ltd.), stored in liquid nitrogen, were tested and determined to be free from mycoplasma contamination. Cells were not used after the 30th passage. CHO-hERG cells were cultured in a humidified incubator of 5% CO2 (4% to 8%) in air at 37° C. (±2° C.). The cells were recovered with recovery medium (F12 medium with 10% fetal bovine serum), subcultured in complete medium (F12 medium, supplemented with 10% fetal bovine serum, 1% Geneticin® selective antibiotic (G418), 89 μg/mL Hygromycin B (HB)), and the culture medium was switched to recovery medium in the last subculture before patch-clamp experiment.
To determine the compounds' IC50, select compounds (“test articles”) were dissolved into DMSO, and then diluted with ECS to get working solutions. Five concentrations of 0.3, 1, 3, 10, and 30 μM were tested. Two replicate cells for each concentration were tested.
Exponentially growing CHO-hERG cells were collected and suspended in extracellular solution for use. The hERG current was recorded at physiological temperature (33.0° C. to 37.0° C.) using whole-cell patch-clamp techniques. Output signals from the patch-clamp amplifier were digitized and low-pass filtered at 2.9 KHz. The recording was controlled with Patchmaster Pro software. The recording chamber with seeded cells was mounted on an inverted microscope stage. A cell in the recording chamber was randomly selected for testing. The cell was continuously perfused from the perfusion system. A micropipette filled with ICS was used as recording electrode in the manual patch-clamp study. The micropipette was prepared on the day of the patch-clamp experiment using glass capillaries (BF150-117-10, SUTTER INSTRUMENT USA). The pipette resistance (Rp) was within 2 to 5 MΩ with ICS filled. From the holding potential of-80 mV, the voltage was increased to +60 mV for 850 ms to open the hERG channels. After that, the voltage was decreased to-50 mV for 1275 ms, causing a “rebound” or tail current, the peak tail current was measured and collected for data analysis. Finally, the voltage was decreased to the holding potential (−80 mV). This command voltage protocol was repeated every 15 s continuously during the test article application.
During the initial recording period with vehicle control working solution, the peak tail current amplitude was monitored until it had been stable for at least 3 sweeps. Cells were then perfused with test article/positive control working solutions until the peak tail current amplitude reached steady state. Steady state was considered reached when three consecutive super-imposable peak tail currents were collected. At this point, cells were once again perfused with next concentration of test article. One or more test articles/positive control or different concentrations of the same test article were tested on each cell with vehicle control washout until the current amplitude returned to values at least 80% of those measured before application of test article. […] At least 2 replicate cells for each concentration were tested. […] (Milnes, J. T., et al.)
Seal criteria: When acquiring whole-cell configuration, a holding potential (e.g.,-80 mV) was applied while membrane parameters were collected (Cm, Rm and Rs). A “good” whole-cell recording was generally defined as: series resistance (Rs) was less than 10 MΩ; membrane resistance (Rm) was more than 500 MΩ and membrane capacitance (Cm) was less than 100 pF. Current amplitude: The peak current amplitude must be between 400 pA and 5000 pA before the test article/positive control application; otherwise the cell was discarded. Leak criteria: At-80 mV holding potential, the absolute leak current value must be less than 200 pA. The amplitude of current was adjusted with leak current at-80 mV. The sweeps which absolute leak current value was more than 200 pA was not used in data analysis.

NLRP3 inflammasome = NLRP3 inflammasome (Homo sapiens, UniProt Q96P20); assay: NLRP3 inflammasome activation in THP1 macrophages, IL-1β AlphaLISA; conditions: for IC50: IL-1β Activity (nM), PMA, LPS priming, nigericin 6.7 uM activation
NLRP3 inflammasome, sequence (Q96P20 whole entry): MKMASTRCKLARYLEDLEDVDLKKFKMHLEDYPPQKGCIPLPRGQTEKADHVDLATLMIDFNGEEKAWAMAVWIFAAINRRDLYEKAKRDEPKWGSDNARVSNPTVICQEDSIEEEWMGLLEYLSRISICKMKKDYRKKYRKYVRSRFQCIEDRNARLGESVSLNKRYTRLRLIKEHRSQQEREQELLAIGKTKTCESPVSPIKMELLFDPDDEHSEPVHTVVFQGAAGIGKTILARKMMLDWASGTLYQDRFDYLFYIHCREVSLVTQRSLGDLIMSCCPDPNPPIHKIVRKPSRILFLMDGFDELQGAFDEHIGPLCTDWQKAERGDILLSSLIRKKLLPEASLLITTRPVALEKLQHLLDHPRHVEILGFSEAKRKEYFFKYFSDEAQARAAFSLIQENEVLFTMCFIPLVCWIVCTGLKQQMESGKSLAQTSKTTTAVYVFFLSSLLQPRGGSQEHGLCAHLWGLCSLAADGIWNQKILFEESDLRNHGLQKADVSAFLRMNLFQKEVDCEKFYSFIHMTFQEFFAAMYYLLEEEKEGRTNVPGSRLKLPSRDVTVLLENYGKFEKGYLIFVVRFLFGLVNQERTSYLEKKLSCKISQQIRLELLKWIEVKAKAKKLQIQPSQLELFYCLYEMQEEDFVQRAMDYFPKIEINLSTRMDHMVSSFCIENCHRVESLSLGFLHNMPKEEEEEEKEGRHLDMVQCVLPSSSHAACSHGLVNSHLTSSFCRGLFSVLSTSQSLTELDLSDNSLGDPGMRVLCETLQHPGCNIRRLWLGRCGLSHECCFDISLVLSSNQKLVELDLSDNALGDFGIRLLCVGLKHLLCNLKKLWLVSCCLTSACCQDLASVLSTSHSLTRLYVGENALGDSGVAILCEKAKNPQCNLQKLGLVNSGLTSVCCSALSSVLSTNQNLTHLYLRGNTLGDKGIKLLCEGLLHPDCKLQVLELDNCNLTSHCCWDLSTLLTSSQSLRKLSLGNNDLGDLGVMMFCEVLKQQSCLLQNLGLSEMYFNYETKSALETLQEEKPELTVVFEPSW

[1] = IL-1β Activity, THP1 macrophages, Table 11 comparison
[2] = THP-1, read-out: IL-6 Activity (μM), THP1 macrophages, PMA, LPS priming, nigericin 6.7 uM
[3] = THP-1, read-out: IL-6 Activity (μM)

pIC50 (IL-6)	IL-1ß activity (in words) (NLRP3 inflammasome)	pIC50 (NLRP3 inflammasome; [1])	IC50 (IL-6; [2]) [µM]	IC50 (NLRP3 inflammasome; THP1 macrophages) [nM]	IC50 (IL-6; [3]) [µM]	pIC50 (NLRP3 inflammasome)	SMILES	hERG inhibition (in words) (hERG channels)	pIC50 (hERG channels; Table 11 comparison)	pIC50 (hERG channels; 33.0-37.0 °C, Table 10)	IL-6 activity (in words) (IL-6)
< 5.00							Cc1cc(N[C@@H]2CCCN(C)C2)nnc1-c1ccc(C(F)(F)F)cc1O [A, reference compound]	high	≥ 6.00		
< 5.00	potent						Cc1cc(N[C@@H]2CCCN(C)C2)nnc1-c1ccc(OC(F)(F)F)cc1O [B, reference compound]	high	5.52 to 6.00		
< 5.00	potent	> 9.00					Cc1ccc(-c2nnc(N[C@@H]3CCCN(C)C3)cc2C)c(O)c1 [C, reference compound]	high	4.70 to 5.00		
< 5.00	potent						Cc1cc(N[C@@H]2CCCN(C)C2)nnc1-c1ccc(Cl)cc1O [D, reference compound]	high	5.00 to 5.52		
			< 1	1 to 10			Cc1cc(N[C@@H]2CCCN(C)C2)nnc1-c1ccc(F)cc1O [compound 1]			4.52 to 4.70	
	potent	> 9.00		< 1			CCc1ccc(-c2nnc(N[C@@H]3CCCN(C)C3)cc2C)c(O)c1 [compound 15]	high	5.00 to 5.52	5.00 to 5.52	
			> 10	10 to 100			Cc1cc(N[C@@H]2CCCN(C)C2)nnc1-c1ccc(C(=O)O)cc1O [compound 92]				
			> 10	1 to 10			Cc1cc(N[C@@H]2CCN(C)C2)nnc1-c1ccc(C(F)(F)F)cc1O [compound 96]				
					> 10	7.00 to 8.00	Cc1cc(N(C)[C@@H]2CCN(C)C2)nnc1-c1ccc(C(F)(F)F)cc1O [compound 97]				

Continued, compound first:

SMILES	pIC50 (IL-6)	IL-1ß activity (in words) (NLRP3 inflammasome)	pIC50 (NLRP3 inflammasome; [1])	IC50 (IL-6; [2]) [µM]	IC50 (NLRP3 inflammasome; THP1 macrophages) [nM]	IC50 (IL-6; [3]) [µM]	pIC50 (NLRP3 inflammasome)	hERG inhibition (in words) (hERG channels)	pIC50 (hERG channels; Table 11 comparison)	pIC50 (hERG channels; 33.0-37.0 °C, Table 10)	IL-6 activity (in words) (IL-6)
Cc1cc(N[C@@H]2CCCN(C)C2)nnc1-c1ccccc1O [compound 2, 2-[4-methyl-6-[[(3R)-1-methyl-3-piperidyl]amino]pyridazin-3-yl]phenol]	5.00 to 5.30	potent	8.00 to 9.00	5 to 10	1 to 10			unexpectedly low	< 4.52	< 4.52	potent
Cc1cc(N[C@@H]2CCCN(C)C2)nnc1-c1ccc(C2CC2)cc1O [compound 3]	5.00 to 5.30			5 to 10				high	5.00 to 5.52	5.00 to 5.52	
Cc1cccc(O)c1-c1ccc(N[C@@H]2CCCN(C)C2)nn1 [compound 7]				1 to 5	1 to 10					< 4.52	
Cc1cccc(O)c1-c1ccc(N(C)[C@@H]2CCCN(C)C2)nn1 [compound 21, (R)-3-methyl-2-(6-(methyl (1-methylpiperidin-3-yl)amino)pyridazin-3-yl) phenol]	5.00 to 5.30	potent	7.00 to 8.00	5 to 10	10 to 100			unexpectedly low	< 4.52	< 4.52	potent
Cc1cc(F)cc(O)c1-c1ccc(N(C)[C@@H]2CCCN(C)C2)nn1 [compound 22]	< 5.00	potent	7.00 to 8.00	> 10	10 to 100			unexpectedly low	< 4.52	< 4.52	potent
Cc1cc(-c2ccc(C(=O)O)cc2O)nnc1N[C@@H]1CCCN(C)C1 [compound 93]				> 10	> 1000						
Cc1cc(N[C@@H]2CC[C@@H](C(=O)O)NC2)nnc1-c1ccccc1O [compound 94]				> 10	> 1000						
Cc1cc(N[C@@H]2CC[C@@H](C(=O)O)N(C)C2)nnc1-c1ccccc1O [compound 95]				> 10	> 1000						
Cc1cc(-c2ccc(C(F)(F)F)cc2O)nnc1O[C@@H]1CCCN(C)C1 [compound 98]						> 10	6.30 to 7.00				
Cc1cc(-c2ccccc2O)nnc1O[C@@H]1CCCN(C)C1 [compound 99]						> 10	< 6.00				
Cc1cc(O[C@@H]2CCCN(C)C2)nnc1-c1ccc(C#N)cc1O [compound 100]						> 10	6.30 to 7.00				
